Results published in publication PMC5681660, “Reduced hepatitis B and D viral entry using clinically applied drugs as novel inhibitors of the bile acid transporter NTCP” (Scientific Reports, 2017).
Where a name gives a salt, the structure may show the parent alone. Read-outs that look alike come from different tables or passages of the source.

Assays:
human NTCP [1] = molecular target: T1, human NTCP (Homo sapiens, UniProt Q14973); assay: Screening fluorescent competitive Myrcludex B-FITC binding assay (96-well, 10 µM drug)
T1 sequence (Q14973 1-349): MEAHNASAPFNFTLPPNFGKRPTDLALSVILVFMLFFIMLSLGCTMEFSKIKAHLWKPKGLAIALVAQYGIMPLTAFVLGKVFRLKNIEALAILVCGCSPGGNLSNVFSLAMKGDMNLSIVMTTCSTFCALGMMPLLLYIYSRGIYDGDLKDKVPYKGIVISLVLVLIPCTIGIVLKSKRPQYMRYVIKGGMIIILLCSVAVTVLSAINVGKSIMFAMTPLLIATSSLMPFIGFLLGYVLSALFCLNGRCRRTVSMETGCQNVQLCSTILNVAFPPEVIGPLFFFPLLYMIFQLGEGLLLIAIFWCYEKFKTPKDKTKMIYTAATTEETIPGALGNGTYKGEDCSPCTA

human NTCP [2] = molecular target: T1, human NTCP; assay: Screening taurocholate uptake assay (96-well, [14C]taurocholate, 10 µM drug)
[3] = Prestwick library screen, 10 µM drug, B-score of Myrcludex B-FITC binding
[4] = Prestwick library screen, 10 µM drug, B-score of taurocholate uptake
[5] = combined ranking from functional and binding assay B-scores
[6] = Prestwick library screen, Myrcludex B-FITC binding, 10 µM drug
[7] = Prestwick library screen, taurocholate uptake, 10 µM drug
[8] = ranking score beside the functional and binding assay B-scores of the screen
[9] = screen, 10 µM drug, Myrcludex B-FITC binding
[10] = combined ranking from functional and binding screening assays
[11] = screen, 10 µM drug, taurocholate uptake

O.O=P(O)(O)C(O)(Cc1cccnc1)P(=O)(O)O [Risedronic acid monohydrate] gave a B-score binding assay (human NTCP [1]; [3]) of 0.727, a B-score functional assay (human NTCP [2]; [4]) of 1.315 and a Ranking score (human NTCP [2]; [5]) of 1045.06.

Cc1nc2n(c(=O)c1CCN1CCC(c3noc4cc(F)ccc34)CC1)CCCC2 [Risperidone] gave a B-score binding assay (human NTCP [1]; [3]) of 1.724, a B-score functional assay (human NTCP [2]; [4]) of 0.025 and a Ranking score (human NTCP [2]; [5]) of 888.472.

For CC(NCCc1ccc(O)cc1)C(O)c1ccc(O)cc1 (stereo not drawn) [Ritodrine hydrochloride], the B-score binding assay (human NTCP [1]; [3]) was 1.66, the B-score functional assay (human NTCP [2]; [4]) was 1 and the Ranking score (human NTCP [2]; [5]) was 1111.92.

Compound CN(C)CCc1c[nH]c2ccc(Cn3cncn3)cc12 [Rizatriptan benzoate] has a B-score binding assay (human NTCP [1]; [6]) of 3.436, a B-score functional assay (human NTCP [2]; [7]) of -0.205 and a Ranking score (human NTCP [2]; [8]) of 781.971.

Work on COc1ccc(C2CNC(=O)C2)cc1OC1CCCC1 (stereo not drawn) [Rolipram] yielded a B-score binding assay (human NTCP [1]; [3]) of 0.265, a B-score functional assay (human NTCP [2]; [4]) of 0.524 and a Ranking score (human NTCP [2]; [5]) of 872.569.

Work on Cn1c([N+](=O)[O-])cnc1COC(N)=O [Ronidazole] yielded a B-score binding assay (human NTCP [1]; [9]) of -0.252, a Ranking score (human NTCP [2]; [10]) of 432.42 and a B-score functional assay (human NTCP [2]; [11]) of -0.446.

For CCCN(CCC)CCc1cccc2c1CC(=O)N2 [Ropinirole HCl], the B-score binding assay (human NTCP [1]; [6]) was 2.082, the B-score functional assay (human NTCP [2]; [7]) was -0.072 and the Ranking score (human NTCP [2]; [8]) was 825.121.

With CC(=O)OCC(=O)NCCCOc1cccc(CN2CCCCC2)c1 [Roxatidine Acetate HCl] the B-score binding assay (human NTCP [1]; [9]) was 0.239, the Ranking score (human NTCP [2]; [10]) was 297.686 and the B-score functional assay (human NTCP [2]; [11]) was -2.305.

OCc1cc(C(O)CNCCCCCCOCCCCc2ccccc2)ccc1O (stereo not drawn) [Salmeterol] was tested, and the B-score binding assay (human NTCP [1]; [9]) was -0.999, the Ranking score (human NTCP [2]; [10]) was 391.804 and the B-score functional assay (human NTCP [2]; [11]) was 0.004.

In the case of O=C(O)c1cn(-c2ccc(F)cc2)c2cc(N3CCNCC3)c(F)cc2c1=O [Sarafloxacin], the B-score binding assay (human NTCP [1]; [9]) is reported as -0.967, the Ranking score (human NTCP [2]; [10]) is reported as 305.771 and the B-score functional assay (human NTCP [2]; [11]) is reported as -0.49.

In the case of Clc1ccc(C(Cn2ccnc2)OCc2csc3c(Cl)cccc23)c(Cl)c1 (stereo not drawn) [Sertaconazole nitrate], the B-score binding assay (human NTCP [1]; [6]) is reported as 0.814, the B-score functional assay (human NTCP [2]; [7]) is reported as -0.094 and the Ranking score (human NTCP [2]; [8]) is reported as 730.855.

For O=C1NCCN1CCN1CCC(c2cn(-c3ccc(F)cc3)c3ccc(Cl)cc23)CC1 [Sertindole], the B-score binding assay (human NTCP [1]; [3]) was 0.84, the B-score functional assay (human NTCP [2]; [4]) was 0.957 and the Ranking score (human NTCP [2]; [5]) was 1028.08.

For CN[C@H]1CC[C@@H](c2ccc(Cl)c(Cl)c2)c2ccccc21 [Sertraline], the B-score binding assay (human NTCP [1]; [9]) was -1.357, the Ranking score (human NTCP [2]; [10]) was 426.035 and the B-score functional assay (human NTCP [2]; [11]) was 0.805.

With CCCc1nn(C)c2c(=O)[nH]c(-c3cc(S(=O)(=O)N4CCN(C)CC4)ccc3OCC)nc12 [Sildenafil] the B-score binding assay (human NTCP [1]; [6]) was 0.383, the B-score functional assay (human NTCP [2]; [7]) was 0.011 and the Ranking score (human NTCP [2]; [8]) was 755.751.

Work on CN[C@@H]1[C@@H](O)[C@@H](O[C@@H]2[C@@H](O)[C@H](O[C@H]3OC(CN)=CC[C@H]3N)[C@@H](N)C[C@H]2N)OC[C@]1(C)O [Sisomicin sulfate] yielded a B-score binding assay (human NTCP [1]; [3]) of 0.455, a B-score functional assay (human NTCP [2]; [4]) of 1.589 and a Ranking score (human NTCP [2]; [5]) of 1018.48.

CC(C)NCC(O)c1ccc(NS(C)(=O)=O)cc1 (stereo not drawn) [Sotalol hydrochloride] gave a B-score binding assay (human NTCP [1]; [3]) of 0.649, a B-score functional assay (human NTCP [2]; [4]) of 0.17 and a Ranking score (human NTCP [2]; [5]) of 866.77.

Work on CC(=O)N[C@@H](CC(=O)N[C@@H](CCC(=O)O)C(=O)O)C(=O)O [Spaglumic acid] yielded a B-score binding assay (human NTCP [1]; [9]) of -0.793, a Ranking score (human NTCP [2]; [10]) of 411.514 and a B-score functional assay (human NTCP [2]; [11]) of -0.043.

CC(=O)S[C@@H]1CC2=CC(=O)CC[C@]2(C)[C@H]2CC[C@@]3(C)[C@@H](CC[C@@]34CCC(=O)O4)[C@H]12 [Spironolactone] showed a B-score binding assay (human NTCP [1]; [6]) of 0.972, a B-score functional assay (human NTCP [2]; [7]) of -0.089 and a Ranking score (human NTCP [2]; [8]) of 751.977.

In the case of C[C@]12Cc3c[nH]nc3C[C@@H]1CC[C@@H]1[C@@H]2CC[C@@]2(C)[C@H]1CC[C@]2(C)O [Stanozolol], the B-score binding assay (human NTCP [1]) is reported as -2.248, the B-score functional assay (human NTCP [2]) is reported as -1.951 and the Ranking score (human NTCP [2]) is reported as 107.121.

Cc1cn([C@H]2C=C[C@@H](CO)O2)c(=O)[nH]c1=O [Stavudine] showed a B-score binding assay (human NTCP [1]; [3]) of 0.431, a B-score functional assay (human NTCP [2]; [4]) of 0.865 and a Ranking score (human NTCP [2]; [5]) of 957.909.

CC1(C)[C@H](C(=O)O)N2C(=O)C[C@H]2S1(=O)=O [Sulbactam] gave a B-score binding assay (human NTCP [1]; [9]) of -1.629, a Ranking score (human NTCP [2]; [10]) of 399.332 and a B-score functional assay (human NTCP [2]; [11]) of 1.339.

With Nc1ccc(S(=O)(=O)Nc2ncccn2)cc1 [Sulfadiazine] the B-score binding assay (human NTCP [1]; [3]) was 1.389, the B-score functional assay (human NTCP [2]; [4]) was 0.878 and the Ranking score (human NTCP [2]; [5]) was 1074.81.

COc1cc(NS(=O)(=O)c2ccc(N)cc2)nc(OC)n1 [Sulfadimethoxine] gave a B-score binding assay (human NTCP [1]; [6]) of -0.117, a B-score functional assay (human NTCP [2]; [7]) of 0.762 and a Ranking score (human NTCP [2]; [8]) of 733.169.

With COc1ncnc(NS(=O)(=O)c2ccc(N)cc2)c1OC [Sulfadoxine] the B-score binding assay (human NTCP [1]; [3]) was 0.336, the B-score functional assay (human NTCP [2]; [4]) was 0.522 and the Ranking score (human NTCP [2]; [5]) was 887.31.

[H]/N=C(/N)NS(=O)(=O)c1ccc(N)cc1 [Sulfaguanidine] was tested, and the B-score binding assay (human NTCP [1]; [6]) was 2.333, the B-score functional assay (human NTCP [2]; [7]) was -0.516 and the Ranking score (human NTCP [2]; [8]) was 669.134.

Work on Cc1ccnc(NS(=O)(=O)c2ccc(N)cc2)n1 [Sulfamerazine] yielded a B-score binding assay (human NTCP [1]; [3]) of 0.205, a B-score functional assay (human NTCP [2]; [4]) of 1.015 and a Ranking score (human NTCP [2]; [5]) of 923.898.

In the case of Cc1cc(C)nc([N-]S(=O)(=O)c2ccc(N)cc2)n1.[Na+] [Sulfamethazine sodium salt], the B-score binding assay (human NTCP [1]; [6]) is reported as 0.015, the B-score functional assay (human NTCP [2]; [7]) is reported as 0.394 and the Ranking score (human NTCP [2]; [8]) is reported as 760.788.

Cc1nnc(NS(=O)(=O)c2ccc(N)cc2)s1 [Sulfamethizole] gave a B-score binding assay (human NTCP [1]; [3]) of 0.555, a B-score functional assay (human NTCP [2]; [4]) of 1.973 and a Ranking score (human NTCP [2]; [5]) of 1054.65.

For COc1ccc(NS(=O)(=O)c2ccc(N)cc2)nn1 [Sulfamethoxypyridazine], the B-score binding assay (human NTCP [1]; [3]) was 1.584, the B-score functional assay (human NTCP [2]; [4]) was 0.331 and the Ranking score (human NTCP [2]; [5]) was 989.975.

COc1cc(NS(=O)(=O)c2ccc(N)cc2)ncn1 [Sulfamonomethoxine] gave a B-score binding assay (human NTCP [1]; [6]) of 0.362, a B-score functional assay (human NTCP [2]; [7]) of -0.097 and a Ranking score (human NTCP [2]; [8]) of 680.363.

With Nc1ccc(S(N)(=O)=O)cc1 [Sulfanilamide] the B-score binding assay (human NTCP [1]; [9]) was -1.742, the Ranking score (human NTCP [2]; [10]) was 381.13 and the B-score functional assay (human NTCP [2]; [11]) was 1.042.

Nc1ccc(S(=O)(=O)Nc2ccnn2-c2ccccc2)cc1 [Sulfaphenazole] was tested, and the B-score binding assay (human NTCP [1]; [3]) was 0.287, the B-score functional assay (human NTCP [2]; [4]) was 0.483 and the Ranking score (human NTCP [2]; [5]) was 867.854.

In the case of Nc1ccc(S(=O)(=O)Nc2ccccn2)cc1 [Sulfapyridine], the B-score binding assay (human NTCP [1]; [9]) is reported as -1.889, the Ranking score (human NTCP [2]; [10]) is reported as 331.804 and the B-score functional assay (human NTCP [2]; [11]) is reported as 0.557.

Nc1ccc(S(=O)(=O)[N-]c2cnc3ccccc3n2)cc1.[Na+] [Sulfaquinoxaline sodium salt] gave a B-score binding assay (human NTCP [1]; [3]) of 0.273, a B-score functional assay (human NTCP [2]; [4]) of 0.659 and a Ranking score (human NTCP [2]; [5]) of 893.639.

With Nc1ccc(S(=O)(=O)Nc2nccs2)cc1 [Sulfathiazole] the B-score binding assay (human NTCP [1]; [9]) was 0.039, the Ranking score (human NTCP [2]; [10]) was 386.996 and the B-score functional assay (human NTCP [2]; [11]) was -1.223.

Cc1noc(NS(=O)(=O)c2ccc(N)cc2)c1C [Sulfisoxazole] was tested, and the B-score binding assay (human NTCP [1]; [6]) was 0.207, the B-score functional assay (human NTCP [2]; [7]) was -0.089 and the Ranking score (human NTCP [2]; [8]) was 663.513.

For COc1cc([S+](C)[O-])ccc1-c1nc2ncccc2[nH]1 (stereo not drawn) [Sulmazole], the B-score binding assay (human NTCP [1]; [9]) was -0.978, the Ranking score (human NTCP [2]; [10]) was 402.209 and the B-score functional assay (human NTCP [2]; [11]) was 0.016.
